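Compound exposure: 48 hours, 5 concentrations, 96-well plates. GI50 = concentration required for 50% inhibition of growth.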 The source made the active and inactive calls. Cut-off read from the data, not from the text of the source: active = GI50 up to about 1.1 µM and inactive = higher.
Key:
Experiment in all cases: NCI-60 cell line screen, 48 h
[1] = tested on: RXF 393
[2] = tested on: HCC 2998
[3] = tested on: NCI-H522
[4] = tested on: NCI-H226
[5] = tested on: SW-620
[6] = tested on: U-251
[7] = tested on: SK-MEL-28
[8] = tested on: OVCAR-8
[9] = tested on: SR
[10] = tested on: SNB-19
[11] = tested on: M14
[12] = tested on: OVCAR-3
[13] = tested on: IGROV-1
[14] = tested on: SF-539
[15] = tested on: TK-10
[16] = tested on: SF-268
[17] = tested on: PC-3
[18] = tested on: MCF7
[19] = tested on: T47D
[20] = tested on: BT-549

Compound | GI50 [1] | GI50 [2] | GI50 [3] | GI50 [4] | GI50 [5] | GI50 [6] | GI50 [7] | GI50 [8] | GI50 [9] | GI50 [10] | GI50 [11] | GI50 [12] | GI50 [13] | GI50 [14] | GI50 [15] | GI50 [16] | GI50 [17] | GI50 [18] | GI50 [19] | GI50 [20]
C[C@@H](CC(O)C1OC1(C)C)[C@@H]1CC[C@]2(C)C3=CCC4C(C)(C)C(O)CC[C@]4(C)C3CCC12C (some centres undefined) | 16.7 µM (inactive) | 48.6 µM (inactive) | 11.8 µM (inactive) | 18.5 µM (inactive) | 38.9 µM (inactive) | 30.5 µM (inactive) | 18.2 µM (inactive) | 26.5 µM (inactive) | 16.3 µM (inactive) | 37.6 µM (inactive) | 13.9 µM (inactive) | 34.7 µM (inactive) | 31.3 µM (inactive) | 17.9 µM (inactive) | 20.3 µM (inactive) | 26.3 µM (inactive) | – | – | – | –
CCOC(=O)c1cnc2oc3ccc(O)cc3c2c1C | > 100 µM (inactive) | > 100 µM (inactive) | – | > 100 µM (inactive) | > 100 µM (inactive) | > 100 µM (inactive) | > 100 µM (inactive) | 61.8 µM (inactive) | 74 µM (inactive) | > 100 µM (inactive) | > 100 µM (inactive) | 33.9 µM (inactive) | – | 39.8 µM (inactive) | 57.4 µM (inactive) | – | > 100 µM (inactive) | > 100 µM (inactive) | 38.5 µM (inactive) | –
COc1ccccc1/C=C1\CCC(CNc2ccc(Cl)cc2)C1=O (centres undefined) | 16.3 µM (inactive) | 6.35 µM (inactive) | 1.57 µM (inactive) | 14 µM (inactive) | 2.09 µM (inactive) | 9.75 µM (inactive) | 13.2 µM (inactive) | 3.46 µM (inactive) | 1.76 µM (inactive) | 11.8 µM (inactive) | 0.242 µM (active) | 10.2 µM (inactive) | 5.83 µM (inactive) | 5.82 µM (inactive) | 5.18 µM (inactive) | 4.86 µM (inactive) | – | – | – | –
COC(=O)C([C@H]1CC[C@H](OCc2ccccc2)[C@@]1(O)COCc1ccccc1)C(C)(O)CCc1ccccc1 (some centres undefined) | 10.4 µM (inactive) | 14 µM (inactive) | 8.07 µM (inactive) | 11.8 µM (inactive) | 13.5 µM (inactive) | 11.6 µM (inactive) | 15.3 µM (inactive) | 13.4 µM (inactive) | 5.43 µM (inactive) | 26.5 µM (inactive) | 10.6 µM (inactive) | 12.7 µM (inactive) | 10.9 µM (inactive) | 15.4 µM (inactive) | 17.1 µM (inactive) | 4.01 µM (inactive) | 4.13 µM (inactive) | 10.1 µM (inactive) | – | 16.7 µM (inactive)
N#CC(C#N)=C/C=C(\Sc1c(Cl)c(Cl)nc(Cl)c1Cl)c1ccc(Cl)cc1 | 18.5 µM (inactive) | – | 18.8 µM (inactive) | 23 µM (inactive) | 5.77 µM (inactive) | 16.8 µM (inactive) | 19.2 µM (inactive) | 5.05 µM (inactive) | 3.75 µM (inactive) | 20.7 µM (inactive) | 19.5 µM (inactive) | 11.6 µM (inactive) | 18.7 µM (inactive) | 19.4 µM (inactive) | 21.2 µM (inactive) | 19.6 µM (inactive) | 30 µM (inactive) | 31.1 µM (inactive) | 31.6 µM (inactive) | –
CCOC(=O)N1c2c(c3ccccc3n2C(=O)OCC)C(=O)C(OC)N1C(=O)OCC (centres undefined) | – | 33.3 µM (inactive) | 13.3 µM (inactive) | 36.1 µM (inactive) | 31.7 µM (inactive) | 27.1 µM (inactive) | 24.2 µM (inactive) | 21.7 µM (inactive) | 16.9 µM (inactive) | 41.4 µM (inactive) | 38.4 µM (inactive) | 30.2 µM (inactive) | 26.5 µM (inactive) | 24.6 µM (inactive) | 50.5 µM (inactive) | – | 21.6 µM (inactive) | 34.3 µM (inactive) | – | 60.7 µM (inactive)
O=c1cc(/N=N/c2ccc(O)cc2)[nH]c(=O)[nH]1 | 42.1 µM (inactive) | 29.7 µM (inactive) | 31.7 µM (inactive) | > 100 µM (inactive) | > 100 µM (inactive) | 60.8 µM (inactive) | > 100 µM (inactive) | > 100 µM (inactive) | > 100 µM (inactive) | > 100 µM (inactive) | > 100 µM (inactive) | 40.7 µM (inactive) | > 100 µM (inactive) | 53.5 µM (inactive) | 99.3 µM (inactive) | 40.5 µM (inactive) | > 100 µM (inactive) | > 100 µM (inactive) | – | > 100 µM (inactive)
COc1ccc(CC2C3=C(CCCC3)CCN2C)cc1 (centres undefined) | > 100 µM (inactive) | 45.4 µM (inactive) | – | > 100 µM (inactive) | > 100 µM (inactive) | > 100 µM (inactive) | > 100 µM (inactive) | > 100 µM (inactive) | – | > 100 µM (inactive) | 44.4 µM (inactive) | > 100 µM (inactive) | > 100 µM (inactive) | > 100 µM (inactive) | > 100 µM (inactive) | 43.1 µM (inactive) | > 100 µM (inactive) | > 100 µM (inactive) | 69.2 µM (inactive) | –
COC(=O)C1C2CC3C(OC(=O)C31)C2OC(=O)[C@](OC)(c1ccccc1)C(F)(F)F (some centres undefined) | > 100 µM (inactive) | > 100 µM (inactive) | > 100 µM (inactive) | > 100 µM (inactive) | > 100 µM (inactive) | > 100 µM (inactive) | > 100 µM (inactive) | > 100 µM (inactive) | > 100 µM (inactive) | > 100 µM (inactive) | > 100 µM (inactive) | > 100 µM (inactive) | > 100 µM (inactive) | > 100 µM (inactive) | > 100 µM (inactive) | > 100 µM (inactive) | – | – | – | –
Cc1cc(C)n2nc3nc(N)c(C#N)c(-c4ccccc4)c3c2n1 | > 100 µM (inactive) | > 100 µM (inactive) | > 100 µM (inactive) | > 78.5 µM (inactive) | > 100 µM (inactive) | > 100 µM (inactive) | > 100 µM (inactive) | > 100 µM (inactive) | > 100 µM (inactive) | > 100 µM (inactive) | > 100 µM (inactive) | > 73.6 µM (inactive) | > 100 µM (inactive) | > 100 µM (inactive) | > 100 µM (inactive) | > 100 µM (inactive) | > 100 µM (inactive) | > 100 µM (inactive) | – | > 100 µM (inactive)
N#Cc1c(/C=C/c2ccccc2)c2c([nH]c1=S)CCCCC2 | > 100 µM (inactive) | > 100 µM (inactive) | > 100 µM (inactive) | > 100 µM (inactive) | > 100 µM (inactive) | 82.2 µM (inactive) | > 100 µM (inactive) | > 100 µM (inactive) | 84.7 µM (inactive) | > 100 µM (inactive) | > 100 µM (inactive) | > 100 µM (inactive) | > 100 µM (inactive) | > 100 µM (inactive) | > 100 µM (inactive) | > 100 µM (inactive) | > 100 µM (inactive) | > 100 µM (inactive) | > 100 µM (inactive) | –
COC(=O)C(CC1=C(O)Nc2ccccc2N1)/C(=N/NC(N)=O)C(=O)Nc1ccccc1C (centres undefined) | 38.5 µM (inactive) | > 100 µM (inactive) | 16.8 µM (inactive) | > 100 µM (inactive) | – | > 100 µM (inactive) | 34.7 µM (inactive) | > 100 µM (inactive) | 20.8 µM (inactive) | > 100 µM (inactive) | > 100 µM (inactive) | > 100 µM (inactive) | > 100 µM (inactive) | > 100 µM (inactive) | > 100 µM (inactive) | 16.5 µM (inactive) | – | – | – | –
O=C(N/N=C(\C1=Nc2ccc(Cl)cc2NC1O)C(O)/C=C/c1ccccc1)c1ccncc1 (centres undefined) | > 100 µM (inactive) | > 100 µM (inactive) | > 100 µM (inactive) | > 100 µM (inactive) | > 100 µM (inactive) | > 100 µM (inactive) | > 100 µM (inactive) | > 100 µM (inactive) | > 100 µM (inactive) | > 100 µM (inactive) | > 100 µM (inactive) | > 100 µM (inactive) | > 100 µM (inactive) | > 100 µM (inactive) | > 100 µM (inactive) | > 100 µM (inactive) | – | – | – | –
O=c1c2c(-c3ccccc3)c3ccccc3nc2cnn1-c1ccccc1 | > 100 µM (inactive) | > 100 µM (inactive) | 26.7 µM (inactive) | > 100 µM (inactive) | 91.4 µM (inactive) | > 100 µM (inactive) | > 100 µM (inactive) | > 100 µM (inactive) | 33.2 µM (inactive) | > 100 µM (inactive) | > 100 µM (inactive) | 55.5 µM (inactive) | > 100 µM (inactive) | > 100 µM (inactive) | > 100 µM (inactive) | > 100 µM (inactive) | – | – | – | –
Cc1cccc(C)c1NC(=O)C1=NC(=S)NC(c2ccccc2)C1c1nc2ccccc2s1 (centres undefined) | > 100 µM (inactive) | > 100 µM (inactive) | > 100 µM (inactive) | > 100 µM (inactive) | > 100 µM (inactive) | > 100 µM (inactive) | > 100 µM (inactive) | > 100 µM (inactive) | > 100 µM (inactive) | > 100 µM (inactive) | > 100 µM (inactive) | > 100 µM (inactive) | > 100 µM (inactive) | > 100 µM (inactive) | > 100 µM (inactive) | > 100 µM (inactive) | – | – | – | –
COC(CN(C)C(=S)Nc1cccc2ccccc12)OC | > 10 µM (inactive) | > 10 µM (inactive) | > 10 µM (inactive) | > 10 µM (inactive) | > 10 µM (inactive) | > 10 µM (inactive) | > 10 µM (inactive) | > 10 µM (inactive) | > 10 µM (inactive) | > 10 µM (inactive) | > 10 µM (inactive) | > 10 µM (inactive) | > 10 µM (inactive) | > 10 µM (inactive) | > 10 µM (inactive) | > 10 µM (inactive) | > 10 µM (inactive) | > 10 µM (inactive) | > 10 µM (inactive) | –
